The nature of the series: Toxicokinetics in pregnant female rats. To be noted: for concentration at 2 h / AUC / Cmax / Kp: female, rat; for concentration at 2 h / Kp: oral; for concentration at 2 h / Kp / Fetus concentration (pooled fetal blood samples): rats; for concentration at 2 h / Fetus concentration (pooled fetal blood samples): 2 hours after dosing on Gestation Day 17; for AUC / Cmax: pregnant rats; for Kp: fetal plasma / maternal plasma, Gestation Day 17, calculated from individual ratios, read-out: Fetal:Maternal Plasma Ratio. The format is in vivo, rat. How it is done:
Compound I was readily absorbed in pregnant rats following daily oral administration of Compound I for 11 days (GD 6-16). Exposures for Compound I increased in an approximately dose-proportional manner from 25 to 100 mg/kg/day.

[1] abbreviates: CD [Crl:CD(SD)], plasma, 25 mg/kg/day, 25 mg/kg/d oral, Gestation Day 16.
Setting [2] is: CD [Crl:CD(SD)], plasma, 50 mg/kg/day, 50 mg/kg/d oral, Gestation Day 16.
The mark [3] stands for this setting: CD [Crl:CD(SD)], plasma, 100 mg/kg/day, 100 mg/kg/d oral, Gestation Day 16.
[4] abbreviates: Crl:CD(SD), plasma, 25 mg/kg/day, 25 mg/kg/d oral, Gestation Day 6.
Setting [5] is: Crl:CD(SD), plasma, 50 mg/kg/day, 50 mg/kg/d oral, Gestation Day 6.
Where [6] appears, read: Crl:CD(SD), plasma, 100 mg/kg/day, 100 mg/kg/d oral, Gestation Day 6.

Where two headings read alike, the source gives them in different places.

For `O[C@H]1CC[C@H](Nc2ncc3nc(Nc4c(F)cc(F)cc4F)n([C@H]4CCOC4)c3n2)CC1` [Compound I, 4-((9-((3S)-tetrahydro-3-furanyl)-8-((2,4,6-trifluorophenyl)amino)-9H-purin-2-yl)amino)-trans-cyclohexanol], the concentration at 2 h by setting is: (CD [Crl:CD(SD)], fetal blood (pooled), 25 mg/kg/day, 25 mg/kg/d, read-out: Fetus concentration (pooled fetal blood samples)) 897 ng/mL; (CD [Crl:CD(SD)], plasma, 25 mg/kg/day, 25 mg/kg/d, read-out: Dam plasma concentration) 1520 ng/mL; (CD [Crl:CD(SD)], plasma, 50 mg/kg/day, 50 mg/kg/d, read-out: Dam plasma concentration) 3410 ng/mL; (CD [Crl:CD(SD)], plasma, 100 mg/kg/day, 100 mg/kg/d, read-out: Dam plasma concentration) 6650 ng/mL. For the same molecule, the AUC (in general, concentration integrated over time) is 19700 ng·h/mL under setting [1]; 42300 ng·h/mL under setting [2]; 96900 ng·h/mL under setting [3]; 19500 ng·h/mL under setting [4]; 49500 ng·h/mL under setting [5]; 102000 ng·h/mL under setting [6]. In addition, the Cmax – broadly, the maximum level reached in the sampled fluid or tissue – runs as follows: under setting [1], 1930 ng/mL; under setting [2], 4210 ng/mL; under setting [3], 8130 ng/mL; under setting [4], 2420 ng/mL; under setting [5], 3920 ng/mL; under setting [6], 6790 ng/mL. For the same molecule, the Kp runs as follows: (Crl:CD(SD), 25 mg/kg/day, 25 mg/kg/d) 0.59; (Crl:CD(SD), 50 mg/kg/day, 50 mg/kg/d) 0.61; (Crl:CD(SD), 100 mg/kg/day, 100 mg/kg/d) 0.61. Further, the “maternal AUC as fold of human AUC” value runs as follows: (rats at LOEL 25 mg/kg/day vs human 100 mg BID) roughly 0.8 fold; (rats at LOEL 25 mg/kg/day vs human 200 mg BID) roughly 0.4 fold. Moreover, the “Fetus concentration (pooled fetal blood samples)” value reads like this: (50 mg/kg/d) 2115 ng/mL; (100 mg/kg/d) 4012 ng/mL.

These data come from US8603527B2, “Pharmaceutical formulations of a substituted diaminopurine” (Signal Pharmaceuticals, LLC, priority 2010, dated 2013).
